Here are results for 11 compounds from US9255090B2, “Heterocyclyl derivatives and their use as prostaglandin D2 receptor modulators” (Actelion Pharmaceuticals Ltd., priority 2012, dated 2016).

For one test, the target named is hCRTH2 receptor (Homo sapiens (Human), UniProt Q9Y5Y4). The test is described as follows: hCRTH2 receptor membranes radioligand (3H-PGD2) displacement assay. Format: binding. The conditions noted are these: 3H-PGD2 radioligand displacement, HEK293-hCRTH2 membranes. In a few lines:
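HEK293-hCRTH2 membranes, 20 μg/well; 3H-PGD2 added at 2.5 nM; binding buffer 50 mM Tris, 10 mM MnCl2, 1 mM EDTA, pH 7.0; 90 min RT; GF/C filtration, scintillation count. Nonspecific binding: PGD2 at […].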
(In general: Loss of bound radioactivity is the signal in a displacement assay; it reports binding, not function.)

The next test deals with eosinophils. The test can be described thus: Eosinophil shape change assay with human plasma. Format: cell-based. The conditions noted are these: Homo sapiens, Eosinophil, human plasma (50%), PGD2 100 nM activation, antagonistic activity. From the text: Eosinophil Shape Change Assay with Human Plasma
After obtaining informed consent, blood samples were drawn by venipuncture according to the protocol approved by the ethics committee of Basel, Switzerland. Polymorphonuclear leukocytes (containing eosinophils, basophils and neutrophils) were isolated using the Polymorphprep™ method (Axis-Shield). […] The polymorphonuclear cell fraction was harvested and depleted for erythrocytes by hypotonic saline lysis.
The polymorphonuclear cells were resuspended in assay buffer (1×PBS with Ca^2+/Mg^2+ supplemented with 0.1% BSA, 10 mM HEPES, and 10 mM Glucose, pH 7.4) at 5×10^6 cells/ml and stained with anti-CD49d-APC ((APC=Allophycocyanin) for 1 hour at RT. Test compounds, at various concentrations, were preincubated 10 min in human plasma (anticoagulated with a thrombin inhibitor). Then, human plasma was added to the polymorphonuclear cells to 50% of final assay volume with polymorphonuclear cells at 4×10^6 cells/ml. After incubation for 10 minutes at 37° C., the polymorphonuclear cells were activated for 5 min at 37° C. by addition of PGD2 at 100 nM final concentration. Activation was stopped by addition of 0.5 ml paraformaldehyde (1%).
Immediately after fixation with paraformaldehyde, the samples were analyzed by FACSCanto flow cytometer (BD Biosciences) and target cells were identified by their forward-scatter (FSC) and side-scatter (SSC) characteristics. Eosinophils were identified by the anti-CD49d-APC signal and their characteristic side-scatter (SSC) profile. Shape change responses, indicative of eosinophil activation, were quantified as the percent of cells with an increased forward-scatter.

Sequence of hCRTH2 receptor (Q9Y5Y4 whole entry): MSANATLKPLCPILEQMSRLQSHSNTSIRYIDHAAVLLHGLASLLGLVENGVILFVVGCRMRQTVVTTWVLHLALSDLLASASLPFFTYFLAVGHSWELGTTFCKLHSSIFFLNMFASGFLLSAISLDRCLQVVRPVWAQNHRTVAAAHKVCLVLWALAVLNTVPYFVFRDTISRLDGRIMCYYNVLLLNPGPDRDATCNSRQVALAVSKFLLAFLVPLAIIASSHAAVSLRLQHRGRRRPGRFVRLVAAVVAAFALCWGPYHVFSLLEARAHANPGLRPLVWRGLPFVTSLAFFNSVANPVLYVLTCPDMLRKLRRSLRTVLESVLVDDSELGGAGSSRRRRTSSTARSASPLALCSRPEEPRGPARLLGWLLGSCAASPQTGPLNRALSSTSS

Take `CCOc1cc(CC(=O)O)ccc1-c1ccc(F)c2c1CN(C(=O)OCc1ccc(F)cc1F)CC2` [Example 409, 8-(4-Carboxymethyl-2-ethoxy-phenyl)-5-fluoro-3,4-dihydro-1H-isoquinoline-2-carboxylic acid 2,4-difluoro-benzyl ester]: the IC50 at hCRTH2 receptor came out at 3.9 nM; in the test on eosinophils, 5 nM.

As for `CCOc1ccc(CC(=O)O)cc1-c1ccc(F)c2c1CN(C(=O)OCCC(C)C)CC2` [Example 370, 8-(5-Carboxymethyl-2-ethoxy-phenyl)-5-fluoro-3,4-dihydro-1H-isoquinoline-2-carboxylic acid 3-methyl-butyl ester], the IC50 on hCRTH2 receptor worked out at 7 nM; with eosinophils it was 76 nM.

Consider `COc1ccc(CC(=O)O)cc1-c1ccc(F)c2c1CN(C(=O)CCN1CCc3ccccc31)CC2` [Example 59, {3-[2-(3-2,3-Dihydro-indol-1-yl-propionyl)-5-fluoro-1,2,3,4-tetrahydro-isoquinolin-8-yl]-4-methoxy-phenyl}-acetic acid], for which the IC50 on hCRTH2 receptor worked out at 7.4 nM; in the test with eosinophils it was 182 nM.

Take `COc1cc(CC(=O)O)ccc1-c1ccc(F)c2c1CN(C(=O)CCc1ccccc1C)CC2` [Example 194, {4-[5-Fluoro-2-(3-o-tolyl-propionyl)-1,2,3,4-tetrahydro-isoquinolin-8-yl]-3-methoxy-phenyl}-acetic acid]: the 50% inhibitory concentration (IC50) on hCRTH2 receptor amounted to 0.75 nM; in the test on eosinophils, 188 nM.

In the case of `COc1ccc(CC(=O)O)cc1-c1cc(F)c(F)c2c1CN(C(=O)[C@@H]1C[C@H]1c1ccccc1)CC2` [Example 84, {3-[5,6-Difluoro-2-((1R,2R)-2-phenyl-cyclopropanecarbonyl)-1,2,3,4-tetrahydro-isoquinolin-8-yl]-4-methoxy-phenyl}-acetic acid], the concentration for half-maximal inhibition (IC50) was 4.82 nM at hCRTH2 receptor and 5 nM in the test on eosinophils.

With `CCOc1ccc(CC(=O)O)cc1-c1ccc(F)c2c1CN(C(=O)CC(C)c1ccc(F)cc1)CC2` (stereo not shown) [Example 211, (4-Ethoxy-3-{5-fluoro-2-[3-(4-fluoro-phenyl)-butyryl]-1,2,3,4-tetrahydro-isoquinolin-8-yl}-phenyl)-acetic acid], the IC50 was 2.6 nM on hCRTH2 receptor and 7 nM with eosinophils.

Consider `COc1ccc(CC(=O)O)cc1-c1ccc(F)c2c1CN(C(=O)CCOc1ccc(F)cc1)CC2` [Example 42, (3-{5-Fluoro-2-[3-(4-fluoro-phenoxy)-propionyl]-1,2,3,4-tetrahydro-isoquinolin-8-yl}-4-methoxy-phenyl)-acetic acid], for which the 50% inhibitory concentration (IC50) at hCRTH2 receptor is 8.76 nM; in the test with eosinophils it was 118 nM.

Take `CCOc1ccc(CC(=O)O)cc1-c1ccc(F)c2c1CN(C(=O)OCc1cccc(F)c1)CC2` [Example 399, 8-(5-Carboxymethyl-2-ethoxy-phenyl)-5-fluoro-3,4-dihydro-1H-isoquinoline-2-carboxylic acid 3-fluoro-benzyl ester]: the IC50 on hCRTH2 receptor stood at 4.7 nM; in the test on eosinophils it was 29 nM.

On to `COc1ccc(CC(=O)O)cc1-c1c(F)cc(F)c2c1CN(C(=O)OCc1ccccc1)CC2` [Example 39, 8-(5-Carboxymethyl-2-methoxy-phenyl)-5,7-difluoro-3,4-dihydro-1H-isoquinoline-2-carboxylic acid benzyl ester], for which the IC50 at hCRTH2 receptor is 5.89 nM; in the test with eosinophils, 404 nM.

Consider `CCOc1cc(CC(=O)O)ccc1-c1ccc(F)c2c1CN(C(=O)CC(C)(C)c1ccccc1)CC2` [Example 238, {3-Ethoxy-4-[5-fluoro-2-(3-methyl-3-phenyl-butyryl)-1,2,3,4-tetrahydro-isoquinolin-8-yl]-phenyl}-acetic acid], for which the 50% inhibitory concentration (IC50) was 0.6 nM at hCRTH2 receptor and 15 nM in the test with eosinophils.

Consider `CCOc1ccc(CC(=O)O)cc1-c1ccc(F)c2c1CN(C(=O)CC1(c3cccc(F)c3)CC1)CC2` [Example 275, [4-Ethoxy-3-(5-fluoro-2-{2-[1-(3-fluoro-phenyl)-cyclopropyl]-acetyl}-1,2,3,4-tetrahydro-isoquinolin-8-yl)-phenyl]-acetic acid], for which the IC50 at hCRTH2 receptor is 6.8 nM; with eosinophils it was 76 nM.

In general, IC50 refers to the midpoint of a concentration-inhibition curve.
